Results taken from patent US20040014209A1, “Compositions and methods for modulating cell differentiation” (priority 2002, published 2004).

Tests used:
[1] = system: ventral marginal zone (VMZ) explants; assay: VMZ explant assay: mRNA injection, cardiac-specific gene expression and beating; assay type: cell-based, Xenopus laevis
Description: In a modification of this assay (FIG. 6A), we targeted mRNAs encoding Wnt and BMP antagonists to VMZ tissue by microinjection into the equatorial region of both ventral blastomeres of four-cell stage embryos. VMZ explants were isolated at stage 10, cultured, and assayed at stage 30 by RT-PCR for cardiac-specific gene expression.
Embryos were fertilized in vitro, dejellied in 2% cysteine-HCl (pH 7.8), and maintained in 0.1×MMR. Explant dissections were performed in 0.75×MMR using an eyelash knife. Embryos were staged according to Nieuwkoop and Faber (1994).
Marginal zone explants were dissected at stage 10. Those explants to be examined by RT-PCR for expression of heart field marker- and heart muscle-specific genes were cultured until sibling embryos were stage 30. In situ hybridization was performed on explants cultured to the equivalent of stage 23 or stage 30. Explants to be scored for formation of beating hearts were maintained until the equivalent of stage 41.
mRNA was transcribed from pSP35-chd, pSP64-ngn, pCS2-DKK1, pCS2-Crescent, pCS2-GSK3, pCS2-WIF, pCS2-dnXwnt8, pCS2-szl, and pXT7-FrzA using the SP6 and T7 mMessage mMachine kits (Ambion). All cDNAs used encode Xenopus proteins except those for Wnt1 and crescent, which encode chick isoforms. The Xenopus form of crescent was identified while this manuscript was in preparation (Pfeffer et al. 1997; Pera and De Robertis 2000; Shibata et al. 2000) and functions identically to the chick isoform in our assays. Xenopus and chick Crescent share 88% amino acid positional identity within the cysteine-rich domain. Injections were performed in 3% Ficoll in 1×MMR. Embryos were injected equatorially into the two ventral or two dorsal blastomeres at the four-cell stage to target expression to the ventral or dorsal marginal zone. The amount of mRNA injected is given in the text. For plasmid cDNA injections, 75 pg of pCS2-Xwnt3A, pCS2-Xwnt5A, and pCSKA-Xwnt8 and 100 pg of pCS2-cWnt11 supercoiled plasmid constructs were injected.
RT-PCR was performed as described in Schneider and Mercola (1999). Twenty-five cycles were performed at an annealing temperature of 55° C., unless otherwise noted. Expression of EF1α was used as a positive control for the reverse transcriptase reaction. The following additional primers were used: XNkx2.5+, […] (SEQ ID NO: 7); XNkx2.5−, […] (SEQ ID NO: 8); M. actin+, […] (SEQ ID NO: 9); M. actin−, […] (SEQ ID NO: 10) (22 cycles); TnIc+, […] (SEQ ID NO: 11); TnIc−, […] (SEQ ID NO: 12); MHCα+, […] GTTCCG (SEQ ID NO: 13); MHCα−, […] (SEQ ID NO: 14); Tbx5+, […] (SEQ ID NO: 15); Tbx5−, […] (SEQ ID NO: 16) (27 cycles); XNkx2.10+, […] (SEQ ID NO: 17); and XNkx2.10−, […] (SEQ ID NO: 18) (59° C., 28 cycles).
A secreted version of the C-terminal fragment was made by fusing the secretory region of human Dkk1 to the C-terminal region cysteine rich region, as described above. This protein is referred to as “C1.” Briefly, the HindIII-Asp718 C-terminal fragment of human Dkk1 (SEQ ID NO: 1) was ligated to the sequence encoding the secretory signal of Dkk1 and cloned into a vector permitting in vitro transcription. As a control, full length Dkk1 was used. RNA was prepared in vitro from the vector as described above. The RNA encoded a polypeptide comprising amino acids 158-266 of SEQ ID NO: 2. The RNA was then injected into noncardiogenic frog embryonic mesoderm, as described above and in Schneider and Mercola (2001) Genes & Dev. 15:304.

[2] = system: posterior lateral plate (PLP) mesoderm explants; assay: Cardiac induction in posterior lateral plate (PLP) mesoderm explants; assay type: cell-based, chick; settings: PLP mesoderm cocultured with transfected COS cells; RT-PCR
Excerpt: (§1) As crescent is expressed in anterior endoderm at approximately the stage expected for a heart-inducing factor, we investigated whether this Wnt inhibitor could induce the formation of heart muscle in explanted gastrula-stage posterior tissues. We made a replication-competent RCAS-crescent retrovirus and examined whether viral crescent expression can substitute for anterior endoderm in the cardiac induction assay. Explants of either PLP-mesoderm or PPS were infected with RCAS viruses encoding either crescent (RCAS-crescent) or alkaline phosphatase (RCAS-AP).
(§2) Eggs were incubated to the given stage (Hamburger and Hamilton 1951), and tissues were dissected with tungsten needles in Tyrodes solution using 1% agar dishes as a base. Serum-free medium containing insulin, transferrin, and selenium was adapted from Stern and Hauschka (1995) and supplemented with 2% chick embryo extract (Life Technologies). Virally infected explants were incubated on ice with viral supernatant diluted 1:1 with culture medium for 1-2 h, then cultured overnight in a sandwich of 35% collagen pads and overlaid with the above concentration of viral supernatant and medium containing 8 μg/mL polybrene. The following day, 0.25 mL of culture medium was added to each well. Anterior endoderm and COS cell cocultures were carried out on 2-μ pore size Nucleopore filters floating on culture medium. […]

[3] = system: posterior primitive streak (PPS) explants; assay: Cardiac induction in posterior primitive streak (PPS) explants; assay type: cell-based, chick; settings: PPS cocultured with transfected COS cells; RT-PCR
Excerpt: as §1, §2

dkk-1
Explants with rhythmic beating ([1]; 900 pg dkk-1, 1.5 ng crescent or 1.5 ng frzb mRNA, scored at stage 41): 73.2%
Explants with induced cement glands ([1]; VMZ explants cultured to stage 41): 90.7%
mRNA dose inducing cardiac-specific gene expression ([1]; VMZ explants, RT-PCR at stage 30): ≥ 450 pg
Heart-specific gene expression (TnIc, MHCα) ([1]; mRNA injected ventrally at four-cell stage, VMZ explants, RT-PCR stage 30): strong expression of TnIc and MHCα
Cardiac gene expression (Nkx-2.5, CMHC1) [2]: induced both Nkx2.5 and CMHC1
Cardiac gene expression (Nkx-2.5, CMHC1) [3]: failed to activate cardiac gene expression
